Test results published in publication PMC10318527, “Utilization of dietary mixed-linkage β-glucans by the Firmicute Blautia producta” (The Journal of Biological Chemistry, 2023).

How the values were obtained:
BpGH94MLG = target: T1, BpGH94MLG (Blautia producta, UniProt A0A7G5MNS2); assay: Phosphorolysis activity of BpGH94MLG on substrates (TLC); format: biochemical, Blautia producta ATCC 27340; conditions: inorganic phosphate, 37 °C
T1 sequence (A0A7G5MNS2 1-804): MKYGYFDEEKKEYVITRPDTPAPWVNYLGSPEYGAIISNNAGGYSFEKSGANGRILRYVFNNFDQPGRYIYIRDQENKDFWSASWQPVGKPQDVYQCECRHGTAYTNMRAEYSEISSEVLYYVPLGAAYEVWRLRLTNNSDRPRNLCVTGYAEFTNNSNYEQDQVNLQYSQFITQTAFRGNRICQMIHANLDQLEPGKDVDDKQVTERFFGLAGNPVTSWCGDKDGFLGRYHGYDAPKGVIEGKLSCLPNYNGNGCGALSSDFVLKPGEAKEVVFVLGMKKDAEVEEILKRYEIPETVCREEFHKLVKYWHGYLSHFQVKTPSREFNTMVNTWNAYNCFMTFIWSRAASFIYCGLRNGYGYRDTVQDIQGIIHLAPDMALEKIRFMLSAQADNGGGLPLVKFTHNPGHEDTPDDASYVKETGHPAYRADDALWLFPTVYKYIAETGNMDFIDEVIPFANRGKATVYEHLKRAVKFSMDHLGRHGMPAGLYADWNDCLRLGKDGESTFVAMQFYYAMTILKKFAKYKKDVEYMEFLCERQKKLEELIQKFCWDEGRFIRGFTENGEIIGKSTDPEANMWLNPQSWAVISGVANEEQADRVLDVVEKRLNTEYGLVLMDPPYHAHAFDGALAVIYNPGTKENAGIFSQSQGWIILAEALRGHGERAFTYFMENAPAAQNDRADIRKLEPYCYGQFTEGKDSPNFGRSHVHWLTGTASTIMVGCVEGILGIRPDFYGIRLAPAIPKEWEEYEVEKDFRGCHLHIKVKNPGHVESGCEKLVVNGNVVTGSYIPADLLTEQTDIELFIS
Description: TLC was used for analyzing enzymatic actions. […] Kinetics parameters for BpGH94MLG were determined with G4G3G, G4G4G3G and cellotriose, following a p-hydroxybenzoic acid hydrazide (PAHBAH) reducing sugar assay ([69]).

B. producta ATCC 27340 = assay: Growth of B. producta on β-glucans; format: cell-based, Blautia producta ATCC 27340; conditions: minimal medium containing 1% glucan
Description: Active culture of B. producta and culture conditions were maintained following the recently reported procedure ([31]). Once B. producta grew, cells were centrifuged, and the obtained supernatant was decanted. A pellet of cells was then washed three times with phosphate-buffered saline (PBS) and washed cells were suspended in 2 ml PBS. […] The growth assessment experiments were performed for 96 h, following our recently established protocol ([82]).

proteome of B. producta = assay: Proteomics of B. producta grown on barley β-glucan versus glucose; format: cell-based, Blautia producta ATCC 27340; conditions: barley β-glucan compared to glucose
Description: B. producta ATCC 27340 was anaerobically grown at 37 °C overnight, cells were collected by centrifugation (3000g at room temperature, RT) and washed thrice with 5 ml PBS. […] The strain was grown to the mid-late exponential phase ([…] ∼ 0.5-0.6) in two biological replicates. […] The lysate was centrifuged (15,000g, 15 min at 4 °C), and the supernatant was collected. Procedures for the precipitation of protein, trypsin digestion, and analysis of generated peptides have been mentioned in the Supplementary file. […] Protein quantities were then calculated using Bradford assay. […] Consequently, trypsin digestion of protein was attained by incubating the reaction at 37°C for 16 h using 5 μg trypsin (MS grade, Promega). The next day, the reaction was quenched by adding one volume of 2% (w/v) trifluoroacetic acid, and the obtained peptides were used for mass spectrometry. Analysis of peptides was carried out as reported by Singh et al. (83). Using the manufacturer's protocol, peptides from each replicate of B. producta ATCC 27340 were initially cleaned-up using Oasis HLB 1 cc Vac cartridges (Waters). The […] analysis of each sample was performed on a quadrupole-TOF hybrid mass spectrometer (TripleTOF 6600, SCIEX) coupled to an Eksigent Nano LC-425 system. […] method was created using 93 precursor isolation windows which were defined on the basis of precursor m/z frequencies in DDA run using the SWATH Variable Window Calculator (SCIEX), with a limitation window of 5 m/z. Analysis parameters were optimized before any sample was run. Nebulizer gas and curtain gas were maintained at 20 and 25 psi, respectively.

BoGH16MLG = system: BoGH16MLG; parameters: method as in PMID 29141231; conditions: BoGH16MLG with barley MLG, no unit, cited from earlier work

Barley β-glucan
phosphorolysis activity of BpGH94MLG (in words) (BpGH94MLG): catalyzed phosphorolysis
growth of B. producta on the glucan (B. producta ATCC 27340): showed growth
growth of B. producta on the glucan (B. producta ATCC 27340; listed as barley MLG): able to grow
abundance of Bp1313 (proteome of B. producta): approximately 5 fold
abundance of Bp1314 (proteome of B. producta): ~16 fold
expression of Bp1317 (proteome of B. producta): about 7 fold
expression of Bp1318 (proteome of B. producta): about 7 fold
up-regulation of Bp3738 (GH18) (proteome of B. producta): 5.1 fold
up-regulation of Bp4420 (GH3) (proteome of B. producta): 3.4 fold
up-regulation of Bp8539 (GH3) (proteome of B. producta): 12.4 fold
kcat (BoGH16MLG; in 1/s): 85.8 ± 4.6
Km (BoGH16MLG; in mg/mL): 0.364 ± 0.051
